Data as given in ChEMBL document CHEMBL5356944, “Pharmacological overview of hederagenin and its derivatives” (RSC Med Chem, 2023).
In brackets after ≈: the same amount, converted by molar mass.

Tests used:
Leishmania mexicana = experiment: Antileishmanial activity against Leishmania mexicana amastigotes assessed as effective dose; details: read-out: ED50 (the source's name)
[1] = Anticancer activity against human KBV cells xenografted in nude mouse assessed as reduction in tumor weight at 10 mg/kg relative to control; format: functional; parameters: scale not given: the % may be the effect or the level left
[2] = Anticancer activity against human KBV cells assessed as cell survival rate in presence of paclitaxel
MCF7 = experiment: Cytotoxicity against human MCF7 cells assessed as reduction in cell viability measured after 72 hrs by MTT assay; format: functional, cell-based; details: MCF7, 72 h
A-431 = experiment: Cytotoxicity against human A-431 cells assessed as reduction in cell viability measured after 72 hrs by MTT assay; format: functional, cell-based; details: A-431, 72 h
HT-1080 = experiment: Cytotoxicity against human HT-1080 cells assessed as reduction in cell viability measured after 72 hrs by MTT assay; format: functional, cell-based; details: HT-1080, 72 h
RAW264.7 [3] = experiment: Antiinflammatory activity in mouse RAW264.7 cells assessed as inhibition of LPS/IFNgamma-induced nitric oxide production; format: functional
T47D = experiment: Cytotoxicity against human T47D cells assessed as reduction in cell viability measured after 72 hrs by MTT assay; format: functional, cell-based
HL-60 = experiment: Cytotoxicity against human HL-60 cells assessed as reduction in cell viability measured after 72 hrs by MTT assay; format: functional, cell-based; details: HL-60, 72 h
A549 [4] = experiment: Cytotoxicity against human A549 cells assessed as reduction in cell viability measured after 72 hrs by MTT assay; format: functional, cell-based; details: A549, 72 h
A549 [5] = experiment: Cytotoxicity against human A549 cells assessed as reduction in cell viability measured after 24 hrs by MTT assay; format: functional, cell-based; details: A549, 24 h
RAW264.7 [6] = experiment: Anti-inflammatory activity against mouse RAW264.7 cells assessed as inhibition of LPS-induced NO production; format: functional, cell-based
[7] = Cytotoxicity against mouse L929 cells assessed as reduction in cell viability; format: toxicity, cell-based
HepG2 = experiment: Antiproliferative activity against human HepG2 cells assessed as reduction in cell viability after 48 hrs by MTT assay; format: functional, cell-based; details: HepG2, 48 h
A549 [8] = experiment: Antitumor activity against human A549 cells assessed as cell growth inhibition
LoVo [9] = experiment: Antiproliferative activity against human LoVo cells assessed as reduction in cell viability incubated for 48 hrs by MTT assay; format: functional, cell-based
[10] = Half life in rat plasma; format: ADME, cell-free
Toxoplasma gondii = experiment: Antiparasitic activity against Toxoplasma gondii infected in human HeLa cells assessed as inhibition of cell growth relative to control; format: functional
[11] = Elimination rate constant in rat plasma; format: ADME, cell-free
A549 [12] = experiment: Inhibition of colony formation in human A549 cells measured after 24 to 48 hrs by crystal violet staining based analysis; format: functional; details: time 24-48 hrs
NCI-H1299 = experiment: Inhibition of colony formation in human NCI-H1299 cells assessed as reduction in number of colonies measured after 24 to 48 hrs by crystal violet staining based assay; format: functional; details: time 24-48 hrs
Streptococcus mutans = experiment: Antibacterial activity against Streptococcus mutans ATCC 25175 assessed as reduction in microbial growth after 24 hrs by agar well diffusion assay; format: functional
A549 [13] = experiment: Cytotoxicity against human A549 cells assessed as reduction in cell growth incubated for 48 hrs by Alamar blue assay; format: functional, cell-based; details: A549, 48 h
Enterococcus faecalis = experiment: Antibacterial activity against Enterococcus faecalis assessed as reduction in bacterial cell growth; format: functional
[14] = Tmax in rat plasma; format: ADME, cell-free
HeLa = experiment: Antiproliferative activity against human HeLa cells assessed as reduction in cell viability measured after 72 hrs by MTT assay; format: functional, cell-based
Staphylococcus aureus = experiment: Antibacterial activity against Staphylococcus aureus KCTC 503 assessed as reduction in bacterial growth; format: functional
BT-20 = experiment: Cytotoxicity against human BT-20 cells assessed as reduction in cell viability incubated for 48 hrs by Alamar blue assay; format: functional, cell-based; details: BT-20, 48 h
LoVo [15] = experiment: Antiproliferative activity against human LoVo cells assessed as reduction in cell viability incubated for 24 hrs by MTT assay; format: functional, cell-based

CC1(C)CC[C@]2(C(=O)O)CC[C@]3(C)C(=CC[C@@H]4[C@@]5(C)CC[C@H](O)[C@@](C)(C=O)[C@@H]5CC[C@]43C)[C@@H]2C1
EC50 (Leishmania mexicana): 9.6 µM

CC1(C)CC[C@]2(C(=O)OCc3ccccc3)CC[C@]3(C)C(=CC[C@@H]4[C@@]5(C)Cc6nccnc6[C@@](C)(CO)[C@@H]5CC[C@]43C)[C@@H]2C1
Activity [1]: 41.88% | Activity [2]: 25.34%

CC1(C)CC[C@]2(NC(=O)N3CCC[C@H]3C(=O)O)CC[C@]3(C)C(=CC[C@@H]4[C@@]5(C)CC[C@@H]6OC(C)(C)OC[C@@]6(C)[C@@H]5CC[C@]43C)[C@@H]2C1
EC50 (Leishmania mexicana): 81.1 µM

CC(=O)OC[C@@]1(C)[C@@H]2CC[C@]3(C)[C@H](CC=C4[C@@H]5CC(C)(C)CC[C@]5(NC(=O)N5CCCC5)CC[C@]43C)[C@@]2(C)CC[C@@H]1O
EC50 (Leishmania mexicana): 10.4 µM

CC1(C)CC[C@]2(C(=O)O)CC[C@]3(C)C(=CC[C@@H]4[C@@]5(C)CC[C@@H]6OC(C)(C)OC[C@@]6(C)[C@@H]5CC[C@]43C)[C@@H]2C1
EC50 (Leishmania mexicana): 83.6 µM

CC(=O)OC[C@H](OC(C)=O)[C@H](OC(C)=O)[C@@H](OC(C)=O)[C@@H]1OC[C@@]2(C)[C@@H]3CC[C@]4(C)[C@H](CC=C5[C@@H]6CC(C)(C)CC[C@]6(C(=O)O)CC[C@]54C)[C@@]3(C)CC[C@@H]2O1
EC50 (Leishmania mexicana): 7.2 µM

CC1(C)CC[C@]2(N=C=O)CC[C@]3(C)C(=CC[C@@H]4[C@@]5(C)CC[C@@H]6OC(C)(C)OC[C@@]6(C)[C@@H]5CC[C@]43C)[C@@H]2C1
EC50 (Leishmania mexicana): 0.9 µM

CC1(C)CC[C@]2(C(=O)OCc3ccccc3)CC[C@]3(C)C(=CC[C@@H]4[C@@]5(C)CC[C@@H]6O[C@H]([C@H]7O[C@H](O)[C@H](O)[C@@H](O)[C@@H]7O)OC[C@@]6(C)[C@@H]5CC[C@]43C)[C@@H]2C1
EC50 (Leishmania mexicana): 6 µM

CC1(C)CC[C@]2(C(=O)OCc3ccccc3)CC[C@]3(C)C(=CC[C@@H]4[C@@]5(C)CC[C@@H]6O[C@H]([C@H](OCc7ccccc7)[C@@H](OCc7ccccc7)[C@H](COCc7ccccc7)OCc7ccccc7)OC[C@@]6(C)[C@@H]5CC[C@]43C)[C@@H]2C1
EC50 (Leishmania mexicana): 4.5 µM

C[C@H](O)[C@H]1OC(CC2OC[C@@]3(C)[C@@H]4CC[C@]5(C)[C@H](CC=C6[C@@H]7CC(C)(C)CC[C@]7(C(=O)O)CC[C@]65C)[C@@]4(C)CC[C@@H]3O2)[C@@H](O)[C@@H]1O (some centres undefined)
EC50 (Leishmania mexicana): 10.3 µM

CC1(C)CC[C@]2(C(=O)O)CC[C@]3(C)C(=CC[C@@H]4[C@@]5(C)CC[C@@H]6O[C@H](c7ccccc7)OC[C@@]6(C)[C@@H]5CC[C@]43C)[C@@H]2C1
EC50 (Leishmania mexicana): 10 µM

COC(=O)[C@]12CCC(C)(C)C[C@H]1C1=CC[C@@H]3[C@@]4(C)C=C(C#N)C(=O)[C@@](C)(CO)[C@@H]4CC[C@@]3(C)[C@]1(C)CC2
EC50 (MCF7): 2.25 µM | EC50 (A-431): 1.7 µM | EC50 (HT-1080): 3.03 µM | Activity (RAW264.7 [3]): 1.6 µM | EC50 (T47D): 3.91 µM | EC50 (HL-60): 0.548 µM | EC50 (A549 [4]): 7.94 µM

Cc1cncc(C(=O)OCCOC(=O)[C@]23CCC(C)(C)C[C@H]2C2=CC[C@@H]4[C@@]5(C)CC[C@H](O)[C@@](C)(CO)[C@@H]5CC[C@@]4(C)[C@]2(C)CC3)n1
IC50 (A549 [5]): 3.45 µM

COC(=O)[C@]12CCC(C)(C)C[C@H]1C1=CC[C@@H]3[C@@]4(C)CC[C@@H]5O[C@H](c6ccccc6)OC[C@@]5(C)[C@@H]4CC[C@@]3(C)[C@]1(C)CC2
EC50 (Leishmania mexicana): 2.9 µM

CC1(C)CC[C@]2(NC(=O)N3CCCC3)CC[C@]3(C)C(=CC[C@@H]4[C@@]5(C)CC[C@@H]6OC(C)(C)OC[C@@]6(C)[C@@H]5CC[C@]43C)[C@@H]2C1
EC50 (Leishmania mexicana): 92 µM

C[C@]12CC[C@H](O)[C@@](C)(CO)[C@@H]1CC[C@]1(C)[C@@H]2CC=C2[C@@H]3C[C@](C)(C(=O)O)[C@@H](O)C[C@]3(C(=O)O)CC[C@]21C
IC50 (RAW264.7 [6]): 0.078 µM

COC(=O)[C@]12CCC(C)(C)C[C@H]1C1/C(=N/O)C[C@@H]3[C@@]4(C)CC[C@H](OC(C)=O)[C@@](C)(COC(C)=O)[C@@H]4CC[C@@]3(C)[C@]1(C)CC2 (some centres undefined)
IC50 [7]: 21.2 µM | IC50 (HepG2): 1.88 µM

O=c1[nH]cc(F)c(=O)[nH]1 [FLUOROURACIL]
IC50 (HepG2): 16.4 µM

C[C@@H]1O[C@@H](O[C@H]2[C@H](O[C@H]3CC[C@@]4(C)[C@@H](CC[C@]5(C)[C@@H]4CC=C4[C@@H]6CC(C)(C)CC[C@]6(C(=O)O)CC[C@]45C)[C@]3(C)CO)OC[C@H](O[C@@H]3O[C@H](CO)[C@@H](O)[C@H](O)[C@H]3O)[C@@H]2O)[C@H](O)[C@H](O)[C@H]1O [HEDERACOLCHISIDE A]
IC50 (A549 [8]): 5.8 µM

CC1(C)CC[C@]2(C(=O)O)CC[C@]3(C)C(=CC[C@@H]4[C@@]5(C)CC[C@H](O)[C@@](C)(CO)[C@@H]5CC[C@]43C)[C@@H]2C1 [HEDERAGENIN]
IC50 (A549 [5]): > 50 µM | IC50 (LoVo [9]): 1.17 µM | half-life [10]: 44.1 min | inhibition (INH) (Toxoplasma gondii): 64.8% | Kel [11]: 0.96 h⁻¹ | INH (A549 [12]): 10 µM | INH (NCI-H1299): 20 µM | MIC (Streptococcus mutans): 9.7 µg/mL | Activity [2]: 149.47% | IC50 (A549 [13]): 26.2 µM | MIC (Enterococcus faecalis): 128 µg/mL (≈ 271 µM) | Tmax [14]: 18.3 min | IC50 (HeLa): 17.4 µg/mL (≈ 36.9 µM) | IC50 (HepG2): 35.9 µM | MIC (Staphylococcus aureus): 16 µg/mL (≈ 33.8 µM) | IC50 (BT-20): 11.8 µM | IC50 (LoVo [15]): 1.39 µM
